In publication PMC11243320, “Tailoring Fibroblast-Activation Protein Targeting for Theranostics: A Comparative Preclinical Evaluation of the ^68Ga- and ^177Lu-Labeled Monomeric and Dimeric Fibroblast-Activation Protein Inhibitors DOTA.SA.FAPi and DOTAGA.(SA.FAPi)2” (Molecules, 2024):

Assay: Lipophilicity LogD octanol/PBS pH 7.4, shake-flask method
Assay type: physicochemical
Experimental: The lipophilicity (LogDoctanol/PBS) and protein binding of the four radiotracers in human serum were determined as described in the Supplemental Data. […]
minimum conjugate amount. Briefly, the Ge-68/Ga-68 generator was eluted with 5 mL HCl 0.1 N and the eluate (~300 MBq) was loaded onto a cation exchange column (Strata-XC, Phenomenex). […]
After the labeling with gallium-68 or lutetium-177 and the quality control of the generated radiotracers, one equivalent of either natGa(NO3)3 or natLuCl3∙6H2O was added to the relevant radiolabeling solutions. […] The homogeneity was determined by HPLC, […]
Lipophilicity /Protein Binding Studies and Metabolic Stability in Human Serum The lipophilicity (LogD Octanol/PBS, pH 7.4) was estimated by the “shake –flask” method: the labelled conju-gate (20 pmol; 0.3 MBq) was added to a 1:1 mixture of 1-octanol (500 μL) and PBS (500 μL, pH 7.4). […] From each phase, an aliquot (50 μL) was pipetted out and measured in a gamma counter. […] The partition coefficient was calculated as the average log ratio of the radioactivity in the organic fraction and […]

Structure (SMILES)	Lipophilicity LogDoctanol/PBS-pH7.4
N#C[C@@H]1CC(F)(F)CN1C(=O)CNC(=O)c1ccnc2ccc(OCCCCNc3c(NCCNC(=O)CN4CCN(CC(=O)[O-])CCN(CC(=O)[O-])CCN(CC(=O)[O-])CC4)c(=O)c3=O)cc12.[68Ga+3] [[^68Ga]Ga-DOTA.SA.FAPi]	−3.38 ± 0.03
N#C[C@@H]1CC(F)(F)CN1C(=O)CNC(=O)c1ccnc2ccc(OCCCCNc3c(NCCNC(=O)CN4CCN(CC(=O)[O-])CCN(CC(=O)[O-])CCN(CC(=O)[O-])CC4)c(=O)c3=O)cc12.[177Lu+3] [[^177Lu]Lu-DOTA.SA.FAPi]	−2.86 ± 0.06
